The test system of data set [1] is Candida albicans standard strain (ATCC 10231) and clinical isolates. Kind of data set: Broth micro-dilution assay, minimal inhibitory concentration (MIC). The format is cell-based. (In general: In broth dilution the organism is exposed to a series of concentrations in liquid medium.)
Data set [2] has as its system adhesion of C. albicans to human buccal epithelial cells. Kind of data set: Adhesion assay of C. albicans to human buccal epithelial cells (HBEC). The note with it: 1-h exposure. The class given is cell-based, Candida albicans / human. The procedure:
Preparation of Yeast and Buccal Epithelial Cells
For preparation of yeast and buccal epithelial cells the methods of Taweechaisupapong et al., 2005 were used with some modification.
C. albicans standard strain (ATCC 10231) and clinical isolates were maintained on Sabouraud-dextrose agar and grown in the yeast phase in Sabouraud-dextrose broth for this study. The organisms were washed three times in normal saline (NSS) by centrifugation at 5000 rpm for 10 minutes and finally suspended in NSS to 4×10^7 cells/ml (MacFarlane standard 1).
Human buccal epithelial cells (HBEC) were collected from healthy individual subjects by gently scraping the cheek mucosa with a sterile wooden spatula. To minimize individual variations, HBEC from the twenty healthy individuals were pooled in 10 ml of sterile NSS (Sandin et al., 1987). The pooled HBEC suspension was washed three times in NSS by centrifugation at 5000 rpm for 10 minutes to eliminate debris and loosely attached micro-organisms. Washed epithelial cells were confirmed to have no attached yeast before the adherence test. The HBEC was then re-suspended in NSS to a concentration of 9×10^8 cells/ml (by haemocytometer) and used immediately for the adhesion assay. The cells were collected at the same time of day on each occasion to minimize any possible effect of diurnal variations of HBEC on yeast adherence.
Adhesion of C. albicans standard strain (ATCC 10231) and clinical isolates to HBEC was determined as follows: 0.2 ml of P. obliquum acetone leaf extract was serially two-fold diluted with normal saline (NSS) in tubes. Tubes containing 0.2 ml of amphotericin B and NSS served as positive and negative controls, respectively. 0.1 ml of HBEC and 0.1 ml of the yeast suspension prepared as described previously were added to each tube, mixed gently and incubated at 37° C. for 1 hour with gentle agitation. The suspension was then diluted in 1 ml of sterile NSS.
The cells were filtered through a 12 μm pore size polycarbonate filter (Millipore), and washed twice with 15 ml of sterile NSS to remove unattached fungi. Each filter was carefully removed with forceps and placed on a glass slide with the HBEC against the glass surface. After 30 s, the filter was gently removed; leaving the HBEC adhered to the glass slide. The slides were air-dried, fixed with methanol and stained with Gram's dye. The number of yeast cells adhering to 100 HBEC was determined by counting in a light microscopy (Nikon Trans microscope) at ×400 magnification and photographed with a Nixon digital camera DXM 1200 F.
The adhesion assay is a modification of a method previously described by Kimura and Pearsall (1978) and by Taweechaisupapong et al. (2005).
The numbers of fungi adhering per 100 human buccal epithelial cells were counted and the percentage reduction was determined as follows: crude plant extract concentration divided by the control (yeast+HBEC)×100 minus 100=% reduction.

The test system of data set [3] is Candida albicans standard strain (ATCC 10231) and clinical isolates. In words: Re-inoculation and re-incubation of MIC wells, cidal/static effects. The format is cell-based. The note with it: for Growth after re-inoculation and re-incubation: 35° C. for 24 h.
The test system is the same in data set [4]. In words: Minimal fungicidal concentration (MFC) assay. The format is cell-based. The note with it: for Subcidal concentration: concentration slightly below the MFC; for MFC: mean value. As for the experimental part:
Minimal Fungicidal Concentration Determination
The minimal fungicidal concentration (MFC) values were determined as the lowest concentration of the extract that inhibited 100 percent growth of C. albicans standard strain (ATCC 10231) and clinical isolates.
Minimal Fungicidal Concentration Assay
The assay was initiated by pouring fresh sterile water aliquots (100 μl) into the wells of a microtitre plate. […] 50 μl of a 0.2 mg/ml aqueous solution of INT (Sigma) was added to each well. These suspensions were re-incubated at 35° C. for 24 h.

The nature of the next data set: in vitro. As to conditions: LC50 (cytotoxicity).
The subject of another data set is Microsporum canis. As to conditions: cited from earlier work.
Data set [5] has as its system monkey kidney (Vero) cells. The note with it: cited from earlier work.
For the next data set, the system named is Candida albicans. As to conditions: C. albicans; cited from earlier work.
Another data set relates to Enterococcus feacalis. As to conditions: cited from earlier work.
Data set [6] has as its system S. aureus, Salmonella typhi, Vibrio cholera, Escherichia coli, Shigella spp. As to conditions: cited from earlier work.
The next data set has as its system Sporothrix schenckii. As to conditions: cited from earlier work.
[7] abbreviates: C. albicans 1051604, Amphotericin B 0.6 mg/ml.
The mark [8] stands for this setting: C. albicans ATCC 10231, Amphotericin B 0.11 mg/ml.
The mark [9] stands for this setting: C. albicans M0824, Amphotericin B 0.6 mg/ml.
Where [10] appears, read: Candida albicans, C. albicans ATCC 10231, mean value, read-out: MIC.

Values after ≈ are worked out from the molar mass of the structure shown. Where two headings read alike, the source gives them in different places. A value given as a limit tells only on which side of the number the result lay.

In general, MIC refers to the lowest concentration that inhibits growth of the organism. Usually MFC stands for the smallest concentration meeting the test's criterion for killing the fungus. The term CC50 denotes the concentration that lowers cell viability or growth by half.

From the text for in vitro: The MTT assay was used to determine the cytotoxicity of dried acetone extracts of H. caffrum (leaves); P. obliquum (leaves); R. melanophloeos (leaves) and S. birrea (stem bark) reconstituted in dimethyl sulphoxide (DMSO) against Mouse fibroblast cells (obtained from the Department of Plant Science, Faculty of Natural and Agricultural Sciences, University of Pretoria, South Africa).
MTT (yellow) is reduced into a formazan (purple) by viable cells. The colour intensity of the formazan produced, which is directly proportional to the number of viable cells, is measured using a spectrophotometer (Mosmann, 1983; Shai, 2007).
Cells were maintained in minimal essential medium (MEM) (Highveld Biological, South Africa) supplemented with 0.1% gentamicin (Virbac) and 5% foetal calf serum (Adcock-lngram). […] Dried crude plant extracts (100 mg) were reconstituted in 1 ml of DMSO and serial 10-fold dilutions of each extract were prepared in growth medium. The growth medium on sub-confluent monolayer cells grown overnight in microtitre plates was removed and cells were exposed to 200 μl of the extracts at different concentrations and incubated again at 37° C. for 5 days. Viability of cells was determined using the tetrazolium-based colorimetric assay (MTT assay) described by Mossmann (1983). Before the addition of MTT, the extract-containing medium on the cells was replaced with fresh culture medium to exclude reduction of the tetrazolium compound by plant extracts. The assay is based on mitochondrial dehydrogenase activity which is assessed by the reductive cleavage of the tetrazolium salt MTT [3-(4.5-dimethylthiazolyl)2.5-diphenyltetrazolium bromide] due to the succinic dehydrogenase present in living cells to yield a purple formazan dye. The cells were incubated with 30 μl of 5 mg/ml MTT in phosphate-buffered saline (PBS) for four hours. Thereafter, medium was removed and cells washed with PBS. DMSO (50 μl) was added to the cells and absorbance was measured using a Versamax microplate reader at 570 nm. Berberine chloride (Sigma) was used as a positive control, wells containing only cells acted as the negative control and a solvent control was also included. The percentage cell viability following the addition of varying concentrations of the extracts in relation to controls was calculated. The LC50 values were calculated (using SoftMax Pro4.8 Software) as the concentration of plant extracts resulting in 50 percent reduction of absorbance compared to untreated cells. Tests were carried out in quadruplicate and each experiment was repeated three times.

As to `C[C@@H]1[C@H](O)[C@@H](C)/C=C/C=C/C=C/C=C/C=C/C=C/C=C/[C@H](O[C@@H]2O[C@H](C)[C@@H](O)[C@H](N)[C@@H]2O)C[C@@H]2O[C@](O)(C[C@@H](O)C[C@@H](O)[C@H](O)CC[C@@H](O)C[C@@H](O)CC(=O)O[C@H]1C)C[C@H](O)[C@H]2C(=O)O` [Amphotericin B, reference compound], the MIC in [1] (12 h incubation, C. albicans 1051255) came out at 30 µg/mL (≈ 32.5 µM); in data set [1] (12 h incubation, C. albicans 1051604), 60 µg/mL (≈ 64.9 µM); in data set [1] (12 h incubation, C. albicans 1051608), 110 µg/mL (≈ 119 µM); in data set [1] (12 h incubation, C. albicans ATCC 10231), 110 µg/mL (≈ 119 µM); in [1] (12 h incubation, C. albicans M0824) it was 30 µg/mL (≈ 32.5 µM); in [1] (12 h incubation, C. albicans M0825), 30 µg/mL (≈ 32.5 µM). Moreover, the minimum inhibitory concentration (MIC) in data set [1] (12 h incubation, C. albicans M0826) is 60 µg/mL (≈ 64.9 µM); in data set [1] (24 h incubation, C. albicans 1051255), 230 µg/mL (≈ 249 µM); in [1] (24 h incubation, C. albicans 1051604), 60 µg/mL (≈ 64.9 µM); in data set [1] (24 h incubation, C. albicans 1051608), 110 µg/mL (≈ 119 µM); in [1] (24 h incubation, C. albicans ATCC 10231), 110 µg/mL (≈ 119 µM); in [1] (24 h incubation, C. albicans M0824), 110 µg/mL (≈ 119 µM). Moreover, the MIC in data set [1] (24 h incubation, C. albicans M0825) came to 60 µg/mL (≈ 64.9 µM); in data set [1] (24 h incubation, C. albicans M0826), 110 µg/mL (≈ 119 µM); in data set [1] (C. albicans ATCC 10231, mean value), 110 µg/mL (≈ 119 µM); in [1] (C. albicans clinical isolate 1051255, mean value), 30 µg/mL (≈ 32.5 µM); in [1] (C. albicans clinical isolate 1051604, mean value), 60 µg/mL (≈ 64.9 µM); in data set [1] (C. albicans clinical isolate 1051608, mean value), 110 µg/mL (≈ 119 µM). Besides, the MIC was found to be 30 µg/mL (≈ 32.5 µM) in [1] (C. albicans clinical isolate M0824, mean value); 30 µg/mL (≈ 32.5 µM) in data set [1] (C. albicans clinical isolate M0825, mean value); 60 µg/mL (≈ 64.9 µM) in [1] (C. albicans clinical isolate M0826, mean value). Also, the “Number of yeast per 100 HBEC” value in data set [2] (setting [7]) is listed as 10; in [2] (setting [9]), 12. Moreover, the “Reduction in adherence %” value is given as 95.05% in data set [2] (setting [7]), 38.42% in data set [2] (setting [8]) and 93.41% in data set [2] (setting [9]). For the same compound, in data set [2] (setting [8]), the “Number of yeast cells per 100 HBEC” value amounted to 109. The Cidal/static effects entry in [3] (C. albicans 1051255) and in data set [3] (C. albicans M0824) was “static” throughout. Also, the “Growth after re-inoculation and re-incubation” value in data set [3] (C. albicans 1051255) and in data set [3] (C. albicans M0824) was “yes” throughout. The Subcidal concentration came out at 0.06 in data set [4] (C. albicans 1051604), 0.11 in data set [4] (C. albicans ATCC 10231) and 0.06 in data set [4] (C. albicans M0824). Also, the MFC in data set [4] (C. albicans ATCC 10231) was 110 µg/mL (≈ 119 µM); in data set [4] (C. albicans clinical isolate 1051255), 230 µg/mL (≈ 249 µM); in data set [4] (C. albicans clinical isolate 1051604) it was 60 µg/mL (≈ 64.9 µM); in data set [4] (C. albicans clinical isolate 1051608), 110 µg/mL (≈ 119 µM); in data set [4] (C. albicans clinical isolate M0824), 110 µg/mL (≈ 119 µM); in data set [4] (C. albicans clinical isolate M0825) it was 60 µg/mL (≈ 64.9 µM). The MFC in [4] (C. albicans clinical isolate M0826) came out at 110 µg/mL (≈ 119 µM).
The compound `C=C(C)[C@@H]1CC[C@]2(C)CC[C@]3(C)[C@H](CC[C@@H]4[C@@]5(C)CC[C@H](O)C(C)(C)[C@@H]5CC[C@]43C)[C@@H]12` [Compound 1.1, Lupeol] came in with a CC50 at 5 days in “in vitro” (mouse fibroblast cells, MTT, 5 days) of 0.00148 µg/mL (≈ 0.00347 µM). In addition, the “MIC (Shai et al., 2008)” value with Microsporum canis is 16 µg/mL (≈ 37.5 µM); in the data set with Candida albicans it was 250 µg/mL (≈ 586 µM); in the data set on Enterococcus feacalis, 63 µg/mL (≈ 148 µM); with Sporothrix schenckii it was 12 µg/mL (≈ 28.1 µM). Also, in data set [5], the “cytotoxic LC50 (Shai et al., 2008)” value was 89.5 µg/mL. Also, the MIC in [1] (setting [10]) was 4 µg/mL (≈ 9.37 µM). Also, the “MIC (Mathabe et al., 2008)” value in data set [6] was over 200 µg/mL.
`COc1ccc2cc3[n+](cc2c1OC)CCc1cc2c(cc1-3)OCO2` [Berberine, Berberine chloride, reference compound] had a cytotoxic concentration (CC50) at 5 days in the data set “in vitro” (mouse) of 9.04 µg/mL.
As for `CC1(C)CC[C@]2(C)CC[C@]3(C)C(CCC4C5(C)CCC(O)C(C)(C)C5CC[C@]43C)C2C1` (stereo partly drawn) [Compound 1.2, β-amyrin], the minimal inhibitory concentration (MIC) in [1] (setting [10]) came to 4 µg/mL (≈ 9.33 µM).

Source of the values: patent US9682114B2, “Plant extracts of Ptaeroxylon obliquum nand compounds having antimicrobial and antihelminthic activity” (UNIVERSITY OF PRETORIA, priority 2013, dated 2017).
